In test [1] the target is T1, von Hippel-Lindau disease tumor suppressor (Homo sapiens, UniProt P40337).
For test [2], the target named is T1, von Hippel-Lindau disease tumor suppressor. Nature of the test: biochemical.
Description: Binding affinity to VHL (unknown origin)-NanoLuc fusion protein expressed in HEK293 cells assessed as apparent dissociation constant incubated for 30 mins in presence of digitonin by NanoBRET assay

T1 sequence (P40337 whole entry): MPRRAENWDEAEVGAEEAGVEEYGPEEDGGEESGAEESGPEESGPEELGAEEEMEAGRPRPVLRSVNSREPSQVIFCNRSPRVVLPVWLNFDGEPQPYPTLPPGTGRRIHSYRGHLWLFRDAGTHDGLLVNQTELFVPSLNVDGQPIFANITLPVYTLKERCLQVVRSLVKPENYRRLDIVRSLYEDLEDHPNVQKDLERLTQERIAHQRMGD

For `NC(=O)[C@@H](Cc1ccc(-c2ccccc2)cc1)NC(=O)[C@@H]1C[C@@H](O)CN1C(=O)[C@@H](n1cc(C2CC2)nn1)C12CC3CC(CC(C3)C1)C2`, the Kd (usually the free concentration of one partner at which half of the binding sites on the other are occupied at equilibrium, for simple one-to-one binding) in test [1] is 67 nM; in test [2], 83 nM.

Take `Cc1ncsc1-c1ccc([C@H](C)NC(=O)[C@@H]2C[C@@H](O)CN2C(=O)[C@@H](n2cc(C3CC3)nn2)C(C)(C)C)cc1`: the Kd in test [1] is 3.3 nM; in test [2], 3.9 nM.

`NC(=O)[C@@H](Cc1ccc(-c2ccccc2)cc1)NC(=O)[C@@H]1C[C@@H](O)CN1C(=O)Cc1cccnn1`: the Kd in test [1] is above 57500 nM; in test [2] it was above 51800 nM.

For `CC(C)[C@@H](C(=O)N1C[C@H](O)C[C@H]1C(=O)N[C@H](Cc1ccc(-c2ccccc2)cc1)C(N)=O)c1cccnc1`, the figures for the dissociation constant Kd in test [1] and in test [2] were 24700 nM and 32100 nM, respectively.

Take `Cc1cnn([C@H](C(=O)N2C[C@H](O)C[C@H]2C(=O)N[C@H](Cc2ccc(-c3ccccc3)cc2)C(N)=O)C(C)C)c1`: the Kd was 25400 nM in test [1] and 18600 nM in test [2].

As for `NC(=O)[C@@H](Cc1ccc(-c2ccccc2)cc1)NC(=O)[C@@H]1C[C@@H](O)CN1C(=O)Cc1cccnc1`, the equilibrium dissociation constant (Kd) in test [1] is above 57500 nM; in test [2], above 51800 nM.

Regarding `Cc1cn([C@H](C(=O)N2C[C@H](O)C[C@H]2C(=O)N[C@H](Cc2ccc(-c3ccccc3)cc2)C(N)=O)C(C)C)cn1`, the figures for the Kd in test [1] and in test [2] were above 57500 nM and 48500 nM, respectively.

As for `NC(=O)[C@@H](Cc1ccc(-c2ccccc2)cc1)NC(=O)[C@@H]1C[C@@H](O)CN1C(=O)[C@H](C1CCC1)n1cc(C2CC2)nn1`, the Kd turned out to be 110 nM in test [1] and 100 nM in test [2].

In the case of `CC(C)(C)[C@@H](C(=O)N1C[C@H](O)C[C@H]1C(=O)N[C@H](Cc1ccc(-c2ccccc2)cc1)C(N)=O)n1cc(C(=O)O)nn1`, the Kd in test [1] was determined as 40100 nM; in test [2] it was 310 nM.

For `C=CC(C)(C)[C@@H](C(=O)N1C[C@H](O)C[C@H]1C(=O)N[C@H](Cc1ccc(-c2ccccc2)cc1)C(N)=O)n1cc(C2CC2)nn1`, the figures for the Kd in test [1] and in test [2] were 63 nM and 84 nM, respectively.

For `CC(C)(C)[C@@H](C(=O)N1C[C@H](O)C[C@H]1C(=O)N[C@H](Cc1ccc(-c2ccccc2)cc1)C(N)=O)n1cc(C2CC2)nn1`, the Kd in test [1] stood at 85 nM; in test [2], 71 nM.

`Cc1cc(C2(C(=O)N3C[C@H](O)C[C@H]3C(=O)N[C@H](Cc3ccc(-c4ccccc4)cc3)C(N)=O)CC2)on1`: the Kd is above 57500 nM in test [1] and above 51800 nM in test [2].

In the case of `Cc1ccc(CC(=O)N2C[C@H](O)C[C@H]2C(=O)N[C@H](Cc2ccc(-c3ccccc3)cc2)C(N)=O)cn1`, the values for the Kd in test [1] and in test [2] were above 57500 nM and above 51800 nM, respectively.

For the compound `CC(C)[C@@H](C(=O)N1C[C@H](O)C[C@H]1C(=O)N[C@H](Cc1ccc(-c2ccccc2)cc1)C(N)=O)c1cnn(C)c1`, the dissociation constant Kd in test [1] was above 57500 nM; in test [2], 45700 nM.

Turning to `CCC(C)(C)[C@@H](C(=O)N1C[C@H](O)C[C@H]1C(=O)N[C@H](Cc1ccc(-c2ccccc2)cc1)C(N)=O)n1cc(C2CC2)nn1`, the values for the Kd in test [1] and in test [2] were 59 nM and 69 nM, respectively.

For `CC(C)(C)[C@@H](C(=O)N1C[C@H](O)C[C@H]1C(=O)N[C@H](Cc1ccc(-c2ccccc2)cc1)C(N)=O)n1cc(C(N)=O)nn1`, the results for the dissociation constant Kd in test [1] and in test [2] were 1900 nM and 210 nM, respectively.

On to `CC[C@H](C)[C@@H](C(=O)N1C[C@H](O)C[C@H]1C(=O)N[C@H](Cc1ccc(-c2ccccc2)cc1)C(N)=O)n1cc(C2CC2)nn1`, for which the Kd was 74 nM in test [1] and 87 nM in test [2].

As to `CC(C)(C)[C@H](N=[N+]=[N-])C(=O)N1C[C@H](O)C[C@H]1C(=O)N[C@H](Cc1ccc(-c2ccccc2)cc1)C(N)=O`, the values for the equilibrium dissociation constant (Kd) in test [1] and in test [2] were 35000 nM and 23900 nM, respectively.

Regarding `Cc1ncsc1-c1ccc(CNC(=O)[C@@H]2C[C@@H](O)CN2C(=O)[C@@H](n2cc(C3CC3)nn2)C(C)(C)C)cc1`, the Kd stood at 6.3 nM in test [1] and 6.5 nM in test [2].

With `CC(=O)N[C@H](C(=O)N1C[C@H](O)C[C@H]1C(=O)NC(C(N)=O)c1ccc(-c2scnc2C)cc1)C(C)(C)C` (mixture of isomers), the Kd in test [1] amounted to 5170 nM; in test [2], 500 nM.

These data come from ChEMBL document CHEMBL5506066, “Potency-Enhanced Peptidomimetic VHL Ligands with Improved Oral Bioavailability” (J Med Chem, 2024).
